PubChem BioAssay (NCI)
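These data come from cells grown in 96-well plates and exposed to compound for 48 hours at five concentrations. Here, GI50 denotes the concentration required for 50% inhibition of growth. TGI marks complete inhibition of growth.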

Tests used:
Assay in all cases: DTP human tumour cell line panel, 48 h
786-0 renal = test system: 786-0 renal
A498 renal = test system: A498 renal
A549 NSCLC = test system: A549 NSCLC
ACHN renal = test system: ACHN renal
CAKI-1 renal = test system: CAKI-1 renal
CCRF-CEM leukemia = test system: CCRF-CEM leukemia
COLO 205 colon = test system: COLO 205 colon
DU-145 prostate = test system: DU-145 prostate
EKVX NSCLC = test system: EKVX NSCLC
HCC-2998 colon = test system: HCC-2998 colon
HCT-116 colon = test system: HCT-116 colon
HCT-15 colon = test system: HCT-15 colon
HL-60(TB) leukemia = test system: HL-60(TB) leukemia
HOP-62 NSCLC = test system: HOP-62 NSCLC
HOP-92 NSCLC = test system: HOP-92 NSCLC
HS 578T breast = test system: HS 578T breast
HT29 colon = test system: HT29 colon
IGROV1 ovarian = test system: IGROV1 ovarian
K-562 leukemia = test system: K-562 leukemia
KM12 colon = test system: KM12 colon
LOX IMVI melanoma = test system: LOX IMVI melanoma
M14 melanoma = test system: M14 melanoma
MCF7 breast = test system: MCF7 breast
MDA-MB-231 breast = test system: MDA-MB-231 breast
MDA-MB-435 = test system: MDA-MB-435
MOLT-4 leukemia = test system: MOLT-4 leukemia
NCI-H226 lung = test system: NCI-H226 lung
NCI-H23 lung = test system: NCI-H23 lung
NCI-H522 lung = test system: NCI-H522 lung
NCI/ADR-RES ovarian = test system: NCI/ADR-RES ovarian
OVCAR-3 ovarian = test system: OVCAR-3 ovarian
OVCAR-4 ovarian = test system: OVCAR-4 ovarian
OVCAR-5 ovarian = test system: OVCAR-5 ovarian
OVCAR-8 ovarian = test system: OVCAR-8 ovarian
PC-3 prostate = test system: PC-3 prostate
RPMI-8226 leukemia = test system: RPMI-8226 leukemia
RXF 393 renal = test system: RXF 393 renal
SF-268 CNS = test system: SF-268 CNS
SF-295 CNS = test system: SF-295 CNS
SF-539 CNS = test system: SF-539 CNS
SK-MEL-2 melanoma = test system: SK-MEL-2 melanoma
SK-MEL-28 melanoma = test system: SK-MEL-28 melanoma
SK-MEL-5 melanoma = test system: SK-MEL-5 melanoma
SK-OV-3 ovarian = test system: SK-OV-3 ovarian
SN12C renal = test system: SN12C renal
SNB-19 CNS = test system: SNB-19 CNS
SNB-75 CNS = test system: SNB-75 CNS
SR leukemia = test system: SR leukemia
SW-620 colon = test system: SW-620 colon
T-47D breast = test system: T-47D breast
TK-10 renal = test system: TK-10 renal
U251 CNS = test system: U251 CNS
UACC-257 melanoma = test system: UACC-257 melanoma
UACC-62 melanoma = test system: UACC-62 melanoma
UO-31 renal = test system: UO-31 renal
BT-549 breast = test system: BT-549 breast
MALME-3M melanoma = test system: MALME-3M melanoma
NCI-H460 lung = test system: NCI-H460 lung

[N-]=N[N+]#I1OC(C(F)(F)F)(C(F)(F)F)c2ccccc21
TGI (786-0 renal): 31.6 µM | TGI (A498 renal): 31.8 µM | TGI (A549 NSCLC): 39.2 µM | TGI (ACHN renal): 29.1 µM | TGI (CAKI-1 renal): 20.9 µM | TGI (CCRF-CEM leukemia): 47.2 µM | TGI (COLO 205 colon): 27 µM | TGI (DU-145 prostate): 38 µM | TGI (EKVX NSCLC): 34 µM | TGI (HCC-2998 colon): 31.8 µM | TGI (HCT-116 colon): 38.2 µM | TGI (HCT-15 colon): 21.2 µM | TGI (HL-60(TB) leukemia): 30.6 µM | TGI (HOP-62 NSCLC): 28.4 µM | TGI (HOP-92 NSCLC): 27 µM | TGI (HS 578T breast): 37.3 µM | TGI (HT29 colon): 35.3 µM | TGI (IGROV1 ovarian): 32.7 µM | TGI (K-562 leukemia): > 100 µM | TGI (KM12 colon): 29 µM | TGI (LOX IMVI melanoma): 77.1 µM | TGI (M14 melanoma): > 100 µM | TGI (MCF7 breast): 27.3 µM | TGI (MDA-MB-231 breast): 29 µM | TGI (MDA-MB-435): 34.2 µM | TGI (MOLT-4 leukemia): 59.2 µM | TGI (NCI-H226 lung): 54.1 µM | TGI (NCI-H23 lung): 36.8 µM | TGI (NCI-H522 lung): 30.5 µM | TGI (NCI/ADR-RES ovarian): 45.4 µM | TGI (OVCAR-3 ovarian): 27.8 µM | TGI (OVCAR-4 ovarian): 28.9 µM | TGI (OVCAR-5 ovarian): 28.5 µM | TGI (OVCAR-8 ovarian): 34.5 µM | TGI (PC-3 prostate): 30.1 µM | TGI (RPMI-8226 leukemia): 51.8 µM | TGI (RXF 393 renal): 30.7 µM | TGI (SF-268 CNS): 27.9 µM | TGI (SF-295 CNS): 31.2 µM | TGI (SF-539 CNS): 30.6 µM | TGI (SK-MEL-2 melanoma): 32 µM | TGI (SK-MEL-28 melanoma): 28.9 µM | TGI (SK-MEL-5 melanoma): 4.36 µM | TGI (SK-OV-3 ovarian): 58.8 µM | TGI (SN12C renal): 30 µM | TGI (SNB-19 CNS): > 100 µM | TGI (SNB-75 CNS): 32.5 µM | TGI (SR leukemia): 68.3 µM | TGI (SW-620 colon): 40 µM | TGI (T-47D breast): 27.7 µM | TGI (TK-10 renal): 32 µM | TGI (U251 CNS): 33.8 µM | TGI (UACC-257 melanoma): 75.9 µM | TGI (UACC-62 melanoma): 47.8 µM | TGI (UO-31 renal): 23.7 µM

FC(F)(F)c1cc(Nc2ccc3c(OCCCN4CCOCC4)cccc3n2)ccc1Cl
GI50 (A498 renal): 3.12 µM | TGI (A498 renal): 48.3 µM | GI50 (ACHN renal): 2.98 µM | TGI (ACHN renal): 10.3 µM | GI50 (BT-549 breast): 2.43 µM | TGI (BT-549 breast): 8.76 µM | GI50 (DU-145 prostate): 2.78 µM | TGI (DU-145 prostate): > 100 µM | GI50 (HCT-116 colon): 2.07 µM | TGI (HCT-116 colon): 4.55 µM | GI50 (IGROV1 ovarian): 3.96 µM | TGI (IGROV1 ovarian): 37.8 µM | GI50 (MALME-3M melanoma): 1.69 µM | TGI (MALME-3M melanoma): 4.11 µM | GI50 (NCI-H226 lung): 3.54 µM | TGI (NCI-H226 lung): > 100 µM | GI50 (NCI/ADR-RES ovarian): 3.16 µM | TGI (NCI/ADR-RES ovarian): > 100 µM | GI50 (OVCAR-4 ovarian): 3.07 µM | TGI (OVCAR-4 ovarian): > 100 µM | GI50 (OVCAR-5 ovarian): 2.36 µM | TGI (OVCAR-5 ovarian): 6.24 µM | GI50 (OVCAR-8 ovarian): 4.33 µM | TGI (OVCAR-8 ovarian): > 100 µM | GI50 (PC-3 prostate): 2.26 µM | TGI (PC-3 prostate): > 100 µM | GI50 (SF-539 CNS): 1.9 µM | TGI (SF-539 CNS): 4.01 µM | GI50 (SN12C renal): 3.35 µM | TGI (SN12C renal): 16.8 µM | GI50 (SNB-75 CNS): 1.89 µM | TGI (SNB-75 CNS): 6.2 µM | GI50 (TK-10 renal): 3.49 µM | TGI (TK-10 renal): > 100 µM | GI50 (UACC-62 melanoma): 2.05 µM | TGI (UACC-62 melanoma): 4.16 µM | GI50 (UO-31 renal): 1.63 µM | TGI (UO-31 renal): 4.29 µM

CN(CCNC(=O)c1[nH]nc2c1ccc1ccccc12)CCNC(=O)c1[nH]nc2c1ccc1ccccc12
TGI (A498 renal): 67.7 µM | TGI (BT-549 breast): 53.2 µM | TGI (CAKI-1 renal): > 76.2 µM | TGI (CCRF-CEM leukemia): 5 µM | TGI (COLO 205 colon): 2.74 µM | TGI (DU-145 prostate): 10.2 µM | TGI (HCC-2998 colon): 3.61 µM | TGI (HCT-15 colon): 46.7 µM | TGI (HL-60(TB) leukemia): 5.95 µM | TGI (HOP-92 NSCLC): 18.5 µM | TGI (HT29 colon): 3.27 µM | TGI (KM12 colon): 5.3 µM | TGI (LOX IMVI melanoma): 3.33 µM | TGI (M14 melanoma): 3.49 µM | TGI (MCF7 breast): 3.29 µM | TGI (NCI-H226 lung): 46.5 µM | TGI (NCI-H23 lung): 4.09 µM | TGI (NCI-H460 lung): 5.11 µM | TGI (NCI-H522 lung): 3.9 µM | TGI (NCI/ADR-RES ovarian): > 100 µM | TGI (OVCAR-3 ovarian): 6.26 µM | TGI (OVCAR-5 ovarian): 3.71 µM | TGI (PC-3 prostate): 6.8 µM | TGI (SF-268 CNS): 4.84 µM | TGI (SK-MEL-2 melanoma): 37.9 µM | TGI (SK-MEL-5 melanoma): 3.24 µM | TGI (SK-OV-3 ovarian): 30.1 µM | TGI (T-47D breast): 5.03 µM | TGI (UACC-257 melanoma): 56.7 µM | TGI (UO-31 renal): 29.1 µM
